{"source": "patent US9174994B2", "about": "“Enhanced treatment regimens using mTor inhibitors” (INTELLIKINE LLC, priority 2011, dated 2015)", "test": "Phase I clinical trial: treatment-emergent adverse events (patients, n (%)), dose limiting toxicity, MTD", "type": "in vivo", "key": {"[1]": {"details": "Table 8: Total QDx5d QW (N = 6)"}, "[2]": {"details": "Table 8: Total QW Dosing (N = 15)"}}, "experimental": "Safety, maximum tolerated dose (MTD), pharmacokinetics (PK) and preliminary antitumor activity were evaluated.\nPharmacodynamic (PD) endpoints were evaluated in surrogate (peripheral blood cells [PBCs], skin) and tumor tissues for the phosphorylation of TORC1-dependent markers (4EBP1/S6), and TORC2-dependent markers (AKT/PRAS40)."}
{"molecule": "CC(C)n1nc(-c2ccc3oc(N)nc3c2)c2c(N)ncnc21", "note": "[compound A]", "values": [{"measurement": "Weight decreased", "setting": "Table 8: Total QDx3d QW (N = 14)", "value": "0 (0%)"}, {"measurement": "Catheter site inflammation", "setting": "[1]", "value": "0 (0%)"}, {"measurement": "Catheter site pain", "setting": "[1]", "value": "0 (0%)"}, {"measurement": "Coagulopathy", "setting": "[1]", "value": "0 (0%)"}, {"measurement": "Confusional state", "setting": "[1]", "value": "0 (0%)"}, {"measurement": "Cough", "setting": "[1]", "value": "0 (0%)"}, {"measurement": "DIARRHEA", "setting": "[1]", "value": "0 (0%)"}, {"measurement": "Dizziness", "setting": "[1]", "value": "0 (0%)"}, {"measurement": "Dyspnoea exertional", "setting": "[1]", "value": "0 (0%)"}, {"measurement": "Eye infection", "setting": "[1]", "value": "0 (0%)"}, {"measurement": "Fatigue", "setting": "[1]", "value": "0 (0%)"}, {"measurement": "Gastritis", "setting": "[1]", "value": "0 (0%)"}, {"measurement": "Gravitational oedema", "setting": "[1]", "value": "0 (0%)"}, {"measurement": "Headache", "setting": "[1]", "value": "0 (0%)"}, {"measurement": "Hyperbilirubinaemia", "setting": "[1]", "value": "0 (0%)"}, {"measurement": "Hypertransaminasaemia", "setting": "[1]", "value": "0 (0%)"}, {"measurement": "Hypertriglyceridaemia", "setting": "[1]", "value": "0 (0%)"}, {"measurement": "Hypocalcaemia", "setting": "[1]", "value": "0 (0%)"}, {"measurement": "Hypomagnesaemia", "setting": "[1]", "value": "0 (0%)"}, {"measurement": "Hypotension", "setting": "[1]", "value": "0 (0%)"}, {"measurement": "Insomnia", "setting": "[1]", "value": "0 (0%)"}, {"measurement": "Low fever", "setting": "[1]", "value": "0 (0%)"}, {"measurement": "Malaise", "setting": "[1]", "value": "0 (0%)"}, {"measurement": "Nausea", "setting": "[1]", "value": "1 (17%)"}, {"measurement": "Oral discomfort", "setting": "[1]", "value": "0 (0%)"}, {"measurement": "Orthostatic hypotension", "setting": "[1]", "value": "0 (0%)"}, {"measurement": "Palmar-plantar erythrodysaesthesia syndrome", "setting": "[1]", "value": "0 (0%)"}, {"measurement": "Panniculitis", "setting": "[1]", "value": "0 (0%)"}, {"measurement": "Platelet count decreased", "setting": "[1]", "value": "0 (0%)"}, {"measurement": "Polyuria", "setting": "[1]", "value": "0 (0%)"}, {"measurement": "Pyrexia", "setting": "[1]", "value": "0 (0%)"}, {"measurement": "Rash", "setting": "[1]", "value": "0 (0%)"}, {"measurement": "Rash macular", "setting": "[1]", "value": "0 (0%)"}, {"measurement": "Skin discolouration", "setting": "[1]", "value": "0 (0%)"}, {"measurement": "Skin exfoliation", "setting": "[1]", "value": "0 (0%)"}, {"measurement": "Urinary tract infection", "setting": "[1]", "value": "0 (0%)"}, {"measurement": "Urine tract infection", "setting": "[1]", "value": "1 (17%)"}, {"measurement": "Vomiting", "setting": "[1]", "value": "1 (17%)"}, {"measurement": "WEAKNESS", "setting": "[1]", "value": "0 (0%)"}, {"measurement": "Weight decreased", "setting": "[1]", "value": "0 (0%)"}, {"measurement": "Catheter site inflammation", "setting": "[2]", "value": "0 (0%)"}, {"measurement": "Catheter site pain", "setting": "[2]", "value": "0 (0%)"}, {"measurement": "Coagulopathy", "setting": "[2]", "value": "0 (0%)"}, {"measurement": "Confusional state", "setting": "[2]", "value": "0 (0%)"}, {"measurement": "Cough", "setting": "[2]", "value": "0 (0%)"}, {"measurement": "DIARRHEA", "setting": "[2]", "value": "1 (7%)"}, {"measurement": "Dizziness", "setting": "[2]", "value": "0 (0%)"}, {"measurement": "Dyspnoea exertional", "setting": "[2]", "value": "0 (0%)"}, {"measurement": "Eye infection", "setting": "[2]", "value": "0 (0%)"}, {"measurement": "Fatigue", "setting": "[2]", "value": "0 (0%)"}, {"measurement": "Gastritis", "setting": "[2]", "value": "0 (0%)"}, {"measurement": "Gravitational oedema", "setting": "[2]", "value": "0 (0%)"}, {"measurement": "Headache", "setting": "[2]", "value": "0 (0%)"}, {"measurement": "Hyperbilirubinaemia", "setting": "[2]", "value": "0 (0%)"}, {"measurement": "Hypertransaminasaemia", "setting": "[2]", "value": "0 (0%)"}, {"measurement": "Hypertriglyceridaemia", "setting": "[2]", "value": "0 (0%)"}, {"measurement": "Hypocalcaemia", "setting": "[2]", "value": "0 (0%)"}, {"measurement": "Hypomagnesaemia", "setting": "[2]", "value": "0 (0%)"}, {"measurement": "Hypotension", "setting": "[2]", "value": "0 (0%)"}, {"measurement": "Insomnia", "setting": "[2]", "value": "0 (0%)"}, {"measurement": "Low fever", "setting": "[2]", "value": "0 (0%)"}, {"measurement": "Malaise", "setting": "[2]", "value": "1 (7%)"}, {"measurement": "Nausea", "setting": "[2]", "value": "0 (0%)"}, {"measurement": "Oral discomfort", "setting": "[2]", "value": "1 (7%)"}, {"measurement": "Orthostatic hypotension", "setting": "[2]", "value": "0 (0%)"}, {"measurement": "Palmar-plantar erythrodysaesthesia syndrome", "setting": "[2]", "value": "0 (0%)"}, {"measurement": "Panniculitis", "setting": "[2]", "value": "0 (0%)"}, {"measurement": "Platelet count decreased", "setting": "[2]", "value": "0 (0%)"}, {"measurement": "Polyuria", "setting": "[2]", "value": "0 (0%)"}, {"measurement": "Pyrexia", "setting": "[2]", "value": "0 (0%)"}, {"measurement": "Rash", "setting": "[2]", "value": "1 (7%)"}, {"measurement": "Rash macular", "setting": "[2]", "value": "0 (0%)"}, {"measurement": "Skin discolouration", "setting": "[2]", "value": "0 (0%)"}, {"measurement": "Skin exfoliation", "setting": "[2]", "value": "0 (0%)"}, {"measurement": "Urinary tract infection", "setting": "[2]", "value": "0 (0%)"}, {"measurement": "Urine tract infection", "setting": "[2]", "value": "0 (0%)"}, {"measurement": "Vomiting", "setting": "[2]", "value": "0 (0%)"}, {"measurement": "WEAKNESS", "setting": "[2]", "value": "1 (7%)"}, {"measurement": "Weight decreased", "setting": "[2]", "value": "0 (0%)"}, {"measurement": "Grade 3 or greater TEAE: Abdominal pain upper", "setting": "Total (N = 60)", "value": "1 (2%)"}, {"measurement": "Grade 3 or greater TEAE: Anaemia", "setting": "Total (N = 60)", "value": "1 (2%)"}, {"measurement": "Grade 3 or greater TEAE: Aspartate aminotransferase increased", "setting": "Total (N = 60)", "value": "1 (2%)"}, {"measurement": "Grade 3 or greater TEAE: Asthenia", "setting": "Total (N = 60)", "value": "1 (2%)"}, {"measurement": "Grade 3 or greater TEAE: Catheter related infection", "setting": "Total (N = 60)", "value": "1 (2%)"}, {"measurement": "Grade 3 or greater TEAE: Cellulitis", "setting": "Total (N = 60)", "value": "1 (2%)"}, {"measurement": "Grade 3 or greater TEAE: Diarrhoea", "setting": "Total (N = 60)", "value": "3 (5%)"}, {"measurement": "Grade 3 or greater TEAE: Disease progression", "setting": "Total (N = 60)", "value": "1 (2%)"}, {"measurement": "Grade 3 or greater TEAE: Enterocutaneous fistula", "setting": "Total (N = 60)", "value": "1 (2%)"}, {"measurement": "Grade 3 or greater TEAE: Gamma-glutamyltransferase increased", "setting": "Total (N = 60)", "value": "2 (3%)"}, {"measurement": "Grade 3 or greater TEAE: Gastroenteritis", "setting": "Total (N = 60)", "value": "1 (2%)"}, {"measurement": "Grade 3 or greater TEAE: Hyperglycaemia", "setting": "Total (N = 60)", "value": "5 (8%)"}, {"measurement": "Grade 3 or greater TEAE: Hypokalaemia", "setting": "Total (N = 60)", "value": "2 (3%)"}, {"measurement": "Grade 3 or greater TEAE: Hyponatraemia", "setting": "Total (N = 60)", "value": "2 (3%)"}, {"measurement": "Grade 3 or greater TEAE: Lymphopenia", "setting": "Total (N = 60)", "value": "4 (7%)"}, {"measurement": "Grade 3 or greater TEAE: Pancreatitis acute", "setting": "Total (N = 60)", "value": "1 (2%)"}, {"measurement": "Grade 3 or greater TEAE: Pleural effusion", "setting": "Total (N = 60)", "value": "1 (2%)"}, {"measurement": "Grade 3 or greater TEAE: Pruritus", "setting": "Total (N = 60)", "value": "2 (3%)"}, {"measurement": "Grade 3 or greater TEAE: Rash", "setting": "Total (N = 60)", "value": "7 (12%)"}, {"measurement": "Grade 3 or greater TEAE: Rash macular", "setting": "Total (N = 60)", "value": "1 (2%)"}, {"measurement": "Grade 3 or greater TEAE: Somnolence", "setting": "Total (N = 60)", "value": "1 (2%)"}, {"measurement": "Grade 3 or greater TEAE: Thrombocytopenia", "setting": "Total (N = 60)", "value": "2 (3%)"}, {"measurement": "Grade 3 or greater TEAE: Urinary tract infection", "setting": "Total (N = 60)", "value": "1 (2%)"}, {"measurement": "Patients Reporting at Least One Grade 3 or Greater TEAE", "setting": "Total (N = 60)", "value": "25 (42%)"}, {"measurement": "Anaemia", "setting": "Total QD Dosing (N = 25)", "value": "2 (8%)"}, {"measurement": "Asthenia", "setting": "Total QD Dosing (N = 25)", "value": "6 (24%)"}, {"measurement": "Blood creatinine increased", "setting": "Total QD Dosing (N = 25)", "value": "6 (24%)"}, {"measurement": "Coagulopathy", "setting": "Total QD Dosing (N = 25)", "value": "1 (4%)"}, {"measurement": "Confusional state", "setting": "Total QD Dosing (N = 25)", "value": "1 (4%)"}]}
